# Read-outs that look alike come from different tables or passages of the source.
# Columns and labels:
# [1] = human, cited from earlier work
# [2] = human, in vivo
# Method: In a comparative pharmacokinetic study of orally administered deramciclane in rats, dogs, rabbits and humans (Klebovich et al Pharm. Pharmacol. Commun., 4:129-136, 1998), it was shown that the plasma concentration curves obtained after the administration of a single 3 mg/kg oral dose of deramciclane to rats (dogs, rabbits) and human show considerable species specific differences. […] Thus a 40-times lower oral dose of deramciclane could be used in man to result in the same maximal plasma concentration as in rat. […] Thus, over 300 times lower oral doses should result in equal exposure in humans than in rats. Basing only the Cmax difference between rat and man, it can be predicted that considerably lower doses should be centrally active in humans than in rat. The minimum oral effective anti-anxiety dose in rats was 1 mg/kg (1-30 mg/kg the full range; see above), i.e. in a 70 kg-man this would mean 70 mg dose. […] This would result in 70 mg/40=1.75 mg (i.e. 0.025 mg/kg) as an effective dose in man.
# rats [3] = conditions: cited from earlier work
# [4] = target: T1, serotonin 5-HT2A-receptors in frontal cortex (Homo sapiens, UniProt P28223); conditions: human brain, single oral dose; cited from earlier work
# T1 construct: serotonin 5-HT2A-receptors in frontal cortex of healthy male volunteers; from tissue; host or cells: frontal cortex of living healthy male volunteers (in vivo)
# T1 sequence (P28223 whole entry): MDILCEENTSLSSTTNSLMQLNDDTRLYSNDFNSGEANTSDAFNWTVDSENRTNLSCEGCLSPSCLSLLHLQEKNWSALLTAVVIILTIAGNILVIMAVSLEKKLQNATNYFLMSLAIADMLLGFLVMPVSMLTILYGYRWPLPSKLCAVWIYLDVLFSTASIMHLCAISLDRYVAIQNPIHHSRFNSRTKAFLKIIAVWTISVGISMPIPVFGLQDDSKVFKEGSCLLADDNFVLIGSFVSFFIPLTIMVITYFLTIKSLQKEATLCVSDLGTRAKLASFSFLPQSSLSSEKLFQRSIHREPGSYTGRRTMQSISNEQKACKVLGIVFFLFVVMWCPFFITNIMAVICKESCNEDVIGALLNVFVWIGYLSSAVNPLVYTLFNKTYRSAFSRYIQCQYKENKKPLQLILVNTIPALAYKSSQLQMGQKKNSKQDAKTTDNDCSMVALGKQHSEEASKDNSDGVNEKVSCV
# [5] = rats, 3 mg/kg, cited from earlier work
# rats [6] = conditions: single intraperitoneal administration; cited from earlier work
# rats [7] = conditions: oral doses of 25 and 100 mg/kg; cited from earlier work
# rats [8] = conditions: intraperitoneally 1 or 10 mg/kg, 8 times, twice a day; cited from earlier work
# mice [9] = conditions: single subcutaneous administration, 3 mg/kg; cited from earlier work
# mice [10] = conditions: oral doses 48-160 mg/kg; cited from earlier work
# depressive symptoms = experiment: randomised placebo-controlled double-blind study in GAD: depressive symptoms (MADRS); assay type: in vivo, human
# Method: (§1) The efficacy of deramciclane in the treatment of anxiety, specifically GAD, was studied in a randomised placebo-controlled double-blind study. In addition, the dosage-dependency of the effects of deramciclane was evaluated. A total of 208 patients were included in the study. The subjects were randomly assigned to four parallel groups to receive one tablet twice daily (b.i.d) of a placebo, 5 mg (=10 mg/day), 15 mg (=30 mg/day), or 30 mg (=60mg/day) deramciclane. The study started with a one-week placebo run-in period, followed by an eight-week placebo-controlled active treatment and a two-week placebo washout period.
# The efficacy of deramciclane on depressive symptoms was studied using the Montgomery Asberg Depression Rating Scale (MADRS).
# rats [11] = conditions: cited from earlier work; remark: listed apart in the source
# [12] = target: serotonin 5-HT2C-receptor (Homo sapiens, UniProt P28335); conditions: cited from earlier work
# serotonin 5-HT2C-receptor, sequence (P28335 33-458): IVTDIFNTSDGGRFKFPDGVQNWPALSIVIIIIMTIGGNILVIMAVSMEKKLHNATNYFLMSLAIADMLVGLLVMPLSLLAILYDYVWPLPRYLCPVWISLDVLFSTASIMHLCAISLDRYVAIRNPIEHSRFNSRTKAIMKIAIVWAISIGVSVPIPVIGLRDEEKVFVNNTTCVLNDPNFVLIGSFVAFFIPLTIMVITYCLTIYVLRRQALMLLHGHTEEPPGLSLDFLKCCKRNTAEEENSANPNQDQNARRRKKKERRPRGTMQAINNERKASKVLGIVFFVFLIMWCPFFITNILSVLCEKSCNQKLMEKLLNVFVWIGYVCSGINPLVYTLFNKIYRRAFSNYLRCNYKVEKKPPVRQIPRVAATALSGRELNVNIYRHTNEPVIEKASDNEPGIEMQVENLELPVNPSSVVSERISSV
# [13] = system: anxiety, specifically GAD; experiment: randomised placebo-controlled double-blind study in GAD: anxiety symptoms (HAM-A, CGI); assay type: in vivo, human; conditions: for CGI severity of illness: percentage of patients not ill or very mildly ill: after 8 weeks
# Method: as §1
# The efficacy of deramciclane on anxiety symptoms was studied by the efficacy variable Hamilton Anxiety Scale (HAM-A), analyzing the change in the score and using responder criterion (at least 50% reduction in HAM-A total score). The Clinical Global Impression (GCI) scale was also used for analyzing the efficacy of deramciclane on anxiety symptoms.
# serotonin 5HT2A-receptor = serotonin 5HT2A-receptor (Homo sapiens, UniProt P28223); conditions: cited from earlier work
# serotonin 5HT2A-receptor, sequence (P28223 whole entry): as the sequence (P28223 whole entry) above
# [14] = human, cited from earlier work; for Cmin and Cmax range: repeated administration for one week
# withdrawal symptoms = experiment: randomised placebo-controlled double-blind study in GAD: Physician's Withdrawal Checklist (PWC); assay type: in vivo, human
# Method: as §1
# After stopping the above-described 8-week treatment period, no discontinuation effects were seen (measured by the Physician's Withdrawal Checklist, PWC). This is different and surprising from the experiences with the most other efficacious drugs used for the treatment of anxiety.
# [15] = rat, single oral administration; cited from earlier work
smiles,measurement,setting,value
"CN(C)CCO[C@]1(c2ccccc2)C[C@H]2CC[C@]1(C)C2(C)C [deramciclane, (1R,2S,4R)-(−)-2-[N,N-(dimethylaminoethoxy)]-2-phenyl-1,7,7-trimethyl-bicyclo [2.2.1]heptane]",Cmax,[1]; single 3 mg/kg oral dose,217.5 ng/mL
same,mean AUC 0-∞,[1]; single oral administration,3737.8 ng·h/mL
same,factor by which oral dose in man is lower for the same maximal plasma concentration as in rat,[2],40 times
same,factor by which oral dose is lower for equal exposure in humans than in rats,[2]; rat,over 300 times
same,minimum oral effective anti-anxiety dose,rats [3]; oral,1 mg/kg
same,activity in punished drinking test,"rats [3]; single oral administration, 1 mg/kg and 10 mg/kg",active
same,plasma concentration at 50% 5HT2A-receptor occupancy,[4],~21 ng/mL
same,plasma concentration at 90% 5HT2A-receptor occupancy,[4],about 70 ng/ml
same,radioactivity in organs including blood and the brain,[5]; intravenous administration,high radioactivity
same,"radioactivity in organs, especially the brain","[5]; oral administration, compared with intravenous",substantially lower
same,effect on social interaction time,rats [6],enhanced the social interaction time
same,minimum effective dose,rats [6],0.7 mg/kg
same,effect in forced swimming test,rats [7],clearly ineffective
same,effect on helpless behaviour induced by inescapable electric foot shocks,rats [8],dose dependently attenuated helpless behaviour
same,activity in two compartment test,mice [9],active
same,effect on tetrabenazine-induced ptosis,mice [10],negligible
same,effect on MADRS score,depressive symptoms; 5 mg b.i.d,ineffective
same,MADRS score decrease,"depressive symptoms; 15 mg b.i.d, p=0.028",7.7 points
same,MADRS score decrease,"depressive symptoms; 30 mg b.i.d, p=0.016",8.0 points
same,effect on caerulein-induced decrease in exploratory behavior,rats [11]; intraperitoneal dose of 0.5 mg/kg,able to attenuate
same,effect in elevated plus maze test,"rats [11]; rats, single intraperitoneal doses 0.1 mg/kg-5 mg/kg",totally ineffective
same,antagonism of the receptor,[12],potent antagonist
same,binding affinity,[12]; in vitro,high affinity
same,"HAM-A score, difference from placebo","[13]; 5 mg b.i.d, 8 weeks",No difference
same,CGI severity of illness: percentage of patients not ill or very mildly ill,[13]; 5 mg b.i.d,49%
same,responders (at least 50% reduction in HAM-A total score),"[13]; 5 mg b.i.d., n=31",57%
same,HAM-A score decrease from baseline,"[13]; 15 mg b.i.d, 8 weeks, p=0.006 vs placebo",14.5 points
same,CGI severity of illness: percentage of patients not ill or very mildly ill,[13]; 15 mg b.i.d,55%
same,responders (at least 50% reduction in HAM-A total score),"[13]; 15 mg b.i.d., n=39, p=0.020 vs placebo",76%
same,CGI severity of illness: percentage of patients not ill or very mildly ill,"[13]; 30 mg b.i.d, p=0.030",61%
same,HAM-A score decrease from baseline,"[13]; 30 mg b.i.d., 8 weeks, not significant vs placebo",14.5 points
same,responders (at least 50% reduction in HAM-A total score),"[13]; 30 mg b.i.d., n=37",70%
same,antagonism of the receptor,serotonin 5HT2A-receptor,potent antagonist
same,binding affinity,serotonin 5HT2A-receptor; in vitro,high affinity
same,Cmin and Cmax range,[14]; 20 mg daily,16 to 33 ng/mL
same,Cmin and Cmax range,[14]; 60 mg daily,48 to 91 ng/mL
same,Cmax,[14]; single oral 20 mg,24 ± 9.4 ng/mL
same,Cmax,[14]; single oral 30 mg,27 ± 6.1 ng/mL
same,"PWC value, Mean (SD)","withdrawal symptoms; 5 mg b.i.d., after 2 week wash-out",9 (8)
same,"PWC value, Mean (SD)","withdrawal symptoms; 5 mg b.i.d., after 8 week treatment",9 (7)
same,"PWC value, Mean (SD)","withdrawal symptoms; 15 mg b.i.d., after 2 week wash-out",8 (7)
same,"PWC value, Mean (SD)","withdrawal symptoms; 15 mg b.i.d., after 8 week treatment",7 (8)
same,"PWC value, Mean (SD)","withdrawal symptoms; 30 mg b.i.d., after 2 week wash-out",8 (7)
same,"PWC value, Mean (SD)","withdrawal symptoms; 30 mg b.i.d., after 8 week treatment",8 (8)
same,withdrawal symptoms after abrupt discontinuation,withdrawal symptoms; after 8-week treatment,did not cause any withdrawal symptoms
same,mean AUC 0-∞,[15],11.9 ng·h/mL

# Reference: patent US6589996B2, “Treatment of disorders relating to the serotonergic system” (Orion Corporation, priority 2000, dated 2003)
